Reference: US5871779A, “Treatment of arthropathies with vanadate compounds or analogues thereof” (Mount Sinai Hospital Corporation, priority 1996, dated 1999)

Assays:
P388 (WT) = experiment: MTT cytotoxicity assay, P388 (WT); assay type: cell-based, murine; details: P388 (WT), 72 hours; read-out: IC50 Value
Protocol: (§1) The relative cytotoxicity of various compounds on tumor cell lines was investigated as follows. Cytotoxicity was measured by the MTT microculture tetrazolium colorimetric assay for all cell lines. The relative cytotoxicity of Na3 VO4 and VOSO4 was investigated using the following tumor cell lines: P388(WT) murine leukemia, P388 (ADR) murine leukemia, Lewis murine lung, MCF7 (WT) human breast, […] human lung, K562 human erythroleukemia, A431 human epidermal, LS180 human colon and SK-OV-3 human ovarian. The relative cytotoxicity of doxorubicin, Na3 VO4 and VOSO4 was investigated using the following tumor cell lines: P388(WT) murine leukemia, P388 (ADR) murine leukemia, MCF7(WT) human breast and MCF7 (ADR) human breast. The relative cytotoxicity of BMOV, BEOV and naglivan was investigated using the following tumor cell lines: P388(WT) murine leukemia, P388 (ADR) murine leukemia, Lewis murine lung, H460 human lung, K562 human erythroleukemia, and SK-OV-3 human ovarian.
(§2) The cells were plated (number of cells/well was different from cell line to cell depending on the dividing rate) in a 96-well microculture plate 24 hours prior to the delivery of the vanadium compounds. Serial concentrations of solutions of the test compounds (0.05-100 μM) were delivered to the corresponding wells. A blank column (without cells) and a control column (with cells without vanadium) were left. The cells were incubated for 72 hours continuously. An MTT solution was added to each well after this incubation period and the cells were incubated for 4 more hours for the completion of the dyeing process. The medium was removed find DMSO was added to each well. The absorbance of each well was read with a Titertek Multiskan (310C) spectrophotometer at 570 nm. The percentage of the absorbance of each vanadium concentration relative to the control calculated and the value of the 50% growth inhibition concentration (IC50) was obtained from the % control versus concentration plot. Each assay was repeated three times and the reported IC50 values were the mean of these three runs.

K562 = experiment: MTT cytotoxicity assay, K562; assay type: cell-based, human; details: K562, 72 hours
Protocol: as §1
as §2, with “Serial concentrations of solutions of the test compounds (0.05-100 μM) were delivered to the corresponding wells.” left out

SK-OV-3 = experiment: MTT cytotoxicity assay, SK-OV-3; assay type: cell-based, human; details: SK-OV-3, 72 hours
Protocol: as §1, §2

collagenase = collagenase production by chondrocytes (ELISA); assay type: cell-based, bovine; details: for production of metalloproteases, such as collagenase: summary statement
Method in brief: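 Bovine articular chondrocytes, orthovanadate 100 μM pretreatment 2 h, then IL 1 (10 ng/ml) or PMA ([…]). Collagenase by ELISA of medium after 24 h; PLA2 as 3H-AA released over 10 min in 1 mg/ml BSA medium; PGE2 by RIA of supernatant after 6 h in Ham's F12.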

H460 = experiment: MTT cytotoxicity assay, H460; assay type: cell-based, human; details: H460, 72 hours
Protocol: as §1, §2

P388 (ADR) = experiment: MTT cytotoxicity assay, P388 (ADR); assay type: cell-based, murine; details: P388 (ADR), 72 hours; read-out: IC50 Value
Protocol: as §1, §2

[1] = test system: proliferating chondrocytes; experiment: viability / proliferation of proliferating chondrocytes (low cell density); assay type: cell-based; details: for proliferation of cells, such as chondrocytes: summary statement
Protocol: In order to compare the effect of orthovanadate on non-proliferating and proliferating chondrocytes, chondrocytes were plated at both high cell density (2×10^6 to 4×10^6 cells/per well on a six well plate) (nonproliferating) and at a lower cell density (5×10^5 to 1×10^6 cells/per well on a six well plate) (proliferating) and then maintained for 48 hours. The cells were then incubated in media (HAMS F12) containing 0-50 μM Orthovanadate for an additional 48 hours. The cells were harvested and the number of viable cells determined.

Lewis lung = experiment: MTT cytotoxicity assay, Lewis lung; assay type: cell-based, murine; details: 72 hours
Protocol: as §1, §2

PLA2 = experiment: release of 3H-arachidonic acid from chondrocytes (PLA2 activity); assay type: cell-based, bovine; details: 100 μM
Protocol: (§3) The effect of orthovanadate and N-acetylcysteine on fos, jun and collagenase expression were examined. Bovine articular chondrocytes were isolated and plated as previously described (Kandel R. A. et al. Biochim. Biophys. Acta. 1053, 130-134, 1990). In order to determine the effect of orthovanadate on IL 1 and PMA (phorbol ester) induced responses, chondrocytes were incubated with orthovanadate (100 μM) for 2 hours before stimulation with IL 1 (10 ng/ml) or PMA ([…]). Collagenase production was determined by incubating chondrocytes for 24 hours with IL 1 or PMA and the cell conditioned medium was assayed for collagenase activity using an ELISA procedure as described previously (Kandel et al. supra). PLA2 activity was measured by incorporating ^3 H-arachidonic acid (^3 H-AA) into the cells and then incubating the cells with medium containing 1 mg/ml BSA, either alone or in the presence of IL 1 or PMA, for 10 min. as previously described (Conquer, J. A. […], Biochim. Biophys. Acta. 1134, 1-6). The amount of ^3 H-AA liberated into the supernatant was determined. To measure PGE2 production, chondrocytes were incubated for 6 hours in Ham's F12 medium, either alone or with IL 1 or PMA. The supernatant was analyzed by RIA using an antibody specific for PGE2 (Dr. S. A. Jones, Mount Sinai Hospital, Toronto, Canada). […]

PGE2 = PGE2 production by chondrocytes (RIA); assay type: cell-based, bovine; details: 100 μM
Protocol: as §3

Structure (SMILES) | IC50 (P388 (WT)) [µM] | IC50 (K562) [µM] | IC50 (SK-OV-3) [µM] | production of metalloproteases, such as collagenase (collagenase) | IC50 (H460) [µM] | IC50 (P388 (ADR)) [µM] | proliferation of cells, such as chondrocytes [1] | IC50 (Lewis lung) [µM] | inhibition of collagenase production (collagenase; 100 μM, IL 1 or PMA stimulated) | inhibition of IL 1 or PMA induced release of 3H-AA (PLA2) | toxicity to cells plated at low cell density ([1]; 0-50 μM, 48 hours) | inhibition of IL 1 or PMA induced PGE2 production (PGE2)
Cc1occc(=O)c1[O-].Cc1occc(=O)c1[O-].[O]=[V+2] [BMOV, bis(methylmaltolato) oxovanadium (IV)] | 31.1 | > 1000 | 2.6 | inhibit | 6.4 | 61.2 | inhibit | 142 | – | – | – | –
[Na+].[Na+].[Na+].[O]=[V]([O-])([O-])[O-] [orthovanadate, sodium orthovanadate] | 5.5 | 100 | 2 | inhibit | 1.5 | 14.8 | inhibit | 42.3 | completely inhibited | did not inhibit | toxic | did not inhibit
